From PMC5788402, “Impact of Target Warhead and Linkage Vector on Inducing Protein Degradation: Comparison of Bromodomain and Extra-Terminal (BET) Degraders Derived from Triazolodiazepine (JQ1) and Tetrahydroquinoline (I-BET726) BET Inhibitor Scaffolds” (Journal of Medicinal Chemistry, 2017)

Tests used:
[1] = target: VCB / Brd4^BD2 ternary complex (Homo sapiens, UniProt O60885+P40337); assay: ITC ternary titration, VCB into Brd4^BD2–PROTAC complex; assay type: binding
[2] = target: VHL-EloC-EloB protein (VCB) (Homo sapiens, UniProt P40337); assay: ITC binary titration, VCB into PROTAC; assay type: binding; details: VCB in syringe, PROTAC in cell
MV4;11 cells = assay: Cell viability assay (CellTiter-Glo), MV4;11; assay type: cell-based; details: Homo sapiens, antiproliferative, 48 h treatment, error = quality of curve fitting, read-out: pEC50 MV4;11 (converted)
Brd4^BD2 = Brd4^BD2 (Homo sapiens, UniProt O60885); assay: ITC binary titration, Brd4^BD2 into PROTAC; assay type: binding; details: Brd4^BD2 in syringe, PROTAC in cell
[3] = ternary, VCB in syringe, Brd4^BD2–PROTAC in cell

For `Cc1ncsc1-c1ccc(CNC(=O)[C@@H]2C[C@@H](O)CN2C(=O)[C@@H](NC(=O)COCCOCCOCCOCCNC(=O)C[C@@H]2N=C(c3ccc(Cl)cc3)c3c(sc(C)c3C)-n3c(C)nnc32)C(C)(C)C)cc1` [compound 7], the α ([1]; cooperativity, ratio between binary and ternary Kd, Brd4^BD2) was 4.7, the “cooperativity (α) Brd4–BD2” value ([1]; ternary complex formation with VCB and Brd4^BD2, as tabulated in Table 2) was 4.7 and the “ΔpKd ± uncertainty” value ([1]; ternary vs binary, Brd4^BD2) was 0.66 ± 0.10. The “stoichiometry N” value [1, 3] was 0.76 ± 0.07, the ΔG [1, 3] was “–10.7 ± 0.05 kcal·mol^–1” and the ΔH [1, 3] was “–10.6 ± 1.3 kcal·mol^–1”. For the same molecule, the “–TΔS” value [1, 3] was “–0.07 ± 1.3 kcal·mol^–1”, the “stoichiometry N” value [2] was 0.76 ± 0.03 and the ΔG [2] was “–9.75 ± 0.13 kcal·mol^–1”. The ΔH [2] was “–8.79 ± 0.42 kcal·mol^–1”, the “–TΔS” value [2] was “–0.96 ± 0.29 kcal·mol^–1” and the EC50 (MV4;11 cells) was 123 nM. The “stoichiometry N” value (Brd4^BD2) was 0.79 ± 0.03, the ΔG (Brd4^BD2) was “–10.3 ± 0.04 kcal·mol^–1” and the ΔH (Brd4^BD2) was “–10.6 ± 0.5 kcal·mol^–1”. The “–TΔS” value (Brd4^BD2) was 0.31 ± 0.53 kcal·mol^–1.
